From US10647680B2, “Urea compound, preparation method therefor and medical use thereof” (Ancureall Pharmaceutical (Shanghai) Co., Ltd., priority 2016, dated 2020)
Read-outs that look alike come from different tables or passages of the source.

Legend:
P-gp = test: Bidirectional transmembrane transport and P-gp efflux in Caco-2 monolayer cell model; format: in vitro ADME; settings: human, Caco-2, pH 7.4; Concentration 10, Inhibitor − (without P-gp inhibitor GF120918); read-out: Efflux Ratio Papp (B→A)/Papp (A→B)
Experimental: (§1) The Caco-2 cell transport experiment was performed using compound 77 of the present invention as a representative example.
(§2) Main procedure: Caco-2 cells (ATCC, HTB-37) were cultured in high-glucose DMEM culture medium (Hyclone) containing 10% fetal calf serum (GIBCO) and penicillin-streptomycin (100 units/mL each) (Sigma). Cells were cultured at 37° C. in an incubator containing 5% CO2. In the transport experiment, Caco-2 cells were inoculated on a filter of a 12-well Transwell plate at a density of 2×10^5 cells/well (Coming Costar, catalog #3401, 1.12 cm^2, 0.4 um of pore size). After inoculation, the Caco-2 cells would form intact cell monolayers after 21 days, including P-gp efflux transporter expression and transepithelial cell resistance (TEER) formation. During the period, the culture medium was replaced once every other day. The volume of culture medium at the transwell membrane Apical Side (A) and Basolateral Side (B) were 0.5 mL and 1.5 mL, respectively. Before the transport experiment (day 21), the preheated HBSS buffer (137 mM NaCl, 4.17 mM NaHCO3, 0.34 mM Na2HPO4, 5.37 mM KCl, 0.44 mM KH2PO4, 1.26 mM CaCl2, 0.49 mM MgCl2, 0.41 mM MgSO4, 5.55 Mm D-Glucose, 10 mM HEPES, pH 7.4) was used firstly to wash Caco-2 cell monolayers for three times, and placed to at 37° C. for incubation for 30 minutes, then TEER values were determined using a cell resistometer (Millicell-ERS2) to confirm the integrity and compactness of the cell monolayers. When the HBSS buffer solution on the transmembrane A-side or B-side was replaced with the test compound, the transport experiment was started.
(§3) Finally, after incubation at 37° C. for 2 hours, the transport experiment was terminated and 50 uL of sample solution was taken from both sides of the Transwell filter membrane separately and added to 100 μL of acetonitrile comprising internal standard compound and mixed well, then centrifuged at 13000 rpm, 4° C. for 10 min, and finally 10 μL (or a specific volume) of supernatant was used for LC-MS/MS sample analysis.
(§4) For each compound, transport experiments in the A-B and B-A directions had three replicates, i.e. n=3.
(§5) LC-MS/MS Sample Analysis: The high performance liquid chromatography (HPLC) system used in this research consisted of two pumps (Shimadzu LC-20AD) and an autosampler (Shimadzu SIL-20AC). The HPLC system was connected in series with an API 4000 triple quadrupole mass spectrometer (Applied Biosystems). The API 4000 triple quadrupole mass spectrometer was equipped with an electrospray ionization (ESI) source. Ultrapurified nitrogen was used as curtain gas, GAS1, GAS2, and collision gas, at flow rates of 20 L/h, 55 L/h, 65 L/h, and 6 L/hr, respectively. The atomization temperature of the ion source was set to 500° C. Data was collected using the software Analyst 1.5.
(§6) Data analysis: The apparent permeability coefficient (Papp) can be calculated by the rate at which a compound permeates the monolayer of Caco-2 cells. Its value is related to the absorption of the compound in vivo. After concentrations at A side and B side were determined by LC-MS/MS, the Papp value in the A-B or B-A direction was calculated according to the following formula: Papp(A→B) or Papp(B→A)=(dQ/dt)/(A*C0)=(C2h*V)/(t*π2*C0)
(§7) In the above formula, dQ/dt is the permeation rate, i.e. the amount of compound that permeated in the dt time, C0 is the initial concentration of drug on the administration side, and A is the surface area of the cell monolayer, i.e. the membrane area.
(§8) After obtaining the Papp (A→B) and Papp (B→A) values of the compound, the Efflux Ratio (ER) of the compound could be calculated by the following formula: Efflux Ratio(ER)=Papp(B−A)/Papp(A−B).
(§9) When the ratio of efflux was >2, the compound could be considered as the substrate of the efflux transporter.

[1] = as above; format: in vitro ADME; settings: human
Experimental: as §1, §2, §3, §4, §5, §6, §7, §8, §9

efflux ratio at 2 h (P-gp): 322
Papp A→B at 2 h ([1]; Caco-2, pH 7.4, Caco-2 monolayer cell model, transmembrane permeability, read-out: Papp(A→B) value (conclusions under the table)): < 1 ×10⁻⁶ cm/s
Papp B→A at 2 h ([1]; Caco-2, pH 7.4, Concentration 10, Inhibitor − (without P-gp inhibitor GF120918)): 20.4 ×10⁻⁶ cm/s
Papp A→B at 2 h ([1]; Caco-2, pH 7.4, Concentration 10, Inhibitor − (without P-gp inhibitor GF120918), read-out: Papp (A→B)): 0.06 ×10⁻⁶ cm/s
SMILES: C[C@H]1O[C@@H](O[C@H]2[C@@H](O)C[C@H](O[C@H]3[C@@H](O)C[C@H](O[C@H]4CC[C@@]5(C)[C@H](CC[C@@H]6[C@@H]5C[C@@H](O)[C@]5(C)[C@@H](C7=CC(=O)OC7)CC[C@]65O)C4)O[C@@H]3C)O[C@@H]2C)C[C@H](O)[C@@H]1O [Digoxin]
